The NIST ThermoML archive (doi:10.1021/je049671t)

Assay: xn = mol fraction of the nth substance listed
Details: Liquid, Vibrating tube method

CCCC [butane] + CCC
Details	mass density [kg/m3]
300 K, 4513.8 kPa, x2 = 0.75	523.55
300 K, 4514.7 kPa, x2 = 0.5	543.88
300 K, 4953.2 kPa, x2 = 0.5	544.76
300 K, 5016.7 kPa, x2 = 0.75	524.69
300 K, 5031 kPa, x2 = 0.25	562.9
300 K, 5451.1 kPa, x2 = 0.25	563.65
300 K, 5474.7 kPa, x2 = 0.75	525.74
300 K, 5508.8 kPa, x2 = 0.5	545.86
300 K, 5929.8 kPa, x2 = 0.25	564.5
300 K, 5950 kPa, x2 = 0.75	526.78
300 K, 5953 kPa, x2 = 0.5	546.73
300 K, 6466.1 kPa, x2 = 0.5	547.72
300 K, 6473.6 kPa, x2 = 0.75	527.92
300 K, 6488.8 kPa, x2 = 0.25	565.48
300 K, 6959.9 kPa, x2 = 0.5	548.68
300 K, 7015.2 kPa, x2 = 0.75	529.08
300 K, 7074.7 kPa, x2 = 0.25	566.49
320 K, 997.4 kPa, x2 = 0.25	529.12
320 K, 1482.2 kPa, x2 = 0.25	530.41
320 K, 1496.3 kPa, x2 = 0.5	509.2
320 K, 1509.8 kPa, x2 = 0.75	484.66
320 K, 1996.7 kPa, x2 = 0.25	531.76
320 K, 2010.3 kPa, x2 = 0.5	510.79
320 K, 2020.7 kPa, x2 = 0.75	486.64
320 K, 2497.1 kPa, x2 = 0.75	488.41
320 K, 2502.8 kPa, x2 = 0.25	533.06
320 K, 2516.5 kPa, x2 = 0.5	512.32
320 K, 2999.8 kPa, x2 = 0.5	513.74
320 K, 3011.6 kPa, x2 = 0.75	490.26
320 K, 3012.6 kPa, x2 = 0.25	534.34
320 K, 3459.5 kPa, x2 = 0.75	491.82
320 K, 3509.2 kPa, x2 = 0.5	515.19
320 K, 3516.7 kPa, x2 = 0.25	535.58
320 K, 4012.1 kPa, x2 = 0.25	536.73
320 K, 4013.7 kPa, x2 = 0.75	493.68
320 K, 4017.1 kPa, x2 = 0.5	516.6
320 K, 4472 kPa, x2 = 0.25	537.8
320 K, 4497.4 kPa, x2 = 0.5	517.9
320 K, 4512.7 kPa, x2 = 0.75	495.29
320 K, 4988.6 kPa, x2 = 0.5	519.21
320 K, 4989.7 kPa, x2 = 0.25	539
320 K, 5019.1 kPa, x2 = 0.75	496.89
320 K, 5490.6 kPa, x2 = 0.5	520.51
320 K, 5501 kPa, x2 = 0.25	540.19
320 K, 5520.4 kPa, x2 = 0.75	498.43
320 K, 5989.8 kPa, x2 = 0.5	521.77
320 K, 6001.7 kPa, x2 = 0.75	499.85
320 K, 6013.9 kPa, x2 = 0.25	541.36
320 K, 6479.5 kPa, x2 = 0.5	522.98
320 K, 6522.9 kPa, x2 = 0.75	501.37
320 K, 6524.6 kPa, x2 = 0.25	542.42
320 K, 7003.8 kPa, x2 = 0.25	543.49
320 K, 7020.7 kPa, x2 = 0.75	502.78
320 K, 7116.4 kPa, x2 = 0.5	524.52
340 K, 1485.3 kPa, x2 = 0.25	500.98
340 K, 1990.9 kPa, x2 = 0.25	502.87
340 K, 1994.9 kPa, x2 = 0.75	448.06
340 K, 2013.6 kPa, x2 = 0.5	478.5
340 K, 2454.3 kPa, x2 = 0.25	504.54
340 K, 2508.8 kPa, x2 = 0.5	480.75
340 K, 2527.2 kPa, x2 = 0.75	451.44
340 K, 2997.6 kPa, x2 = 0.25	506.44
340 K, 3013.6 kPa, x2 = 0.5	482.96
340 K, 3018 kPa, x2 = 0.75	454.37
340 K, 3488 kPa, x2 = 0.25	508.09
340 K, 3515.5 kPa, x2 = 0.5	485.04
340 K, 3542.6 kPa, x2 = 0.75	457.27
340 K, 3984.5 kPa, x2 = 0.25	509.71
340 K, 4016.2 kPa, x2 = 0.5	487.04
340 K, 4021.6 kPa, x2 = 0.75	459.81
340 K, 4469.1 kPa, x2 = 0.75	462.01
340 K, 4496.8 kPa, x2 = 0.5	488.89
340 K, 4514.8 kPa, x2 = 0.25	511.39
340 K, 4981.8 kPa, x2 = 0.25	512.84
340 K, 4991.2 kPa, x2 = 0.75	464.48
340 K, 5012.2 kPa, x2 = 0.5	490.8
340 K, 5479.2 kPa, x2 = 0.25	514.33
340 K, 5511.6 kPa, x2 = 0.5	492.6
340 K, 5517 kPa, x2 = 0.75	466.87
340 K, 5958.5 kPa, x2 = 0.25	515.74
340 K, 5990.2 kPa, x2 = 0.75	468.91
340 K, 6031.2 kPa, x2 = 0.5	494.4
340 K, 6477.8 kPa, x2 = 0.25	517.22
340 K, 6495 kPa, x2 = 0.75	471.01
340 K, 6534.4 kPa, x2 = 0.5	496.09
340 K, 6953.2 kPa, x2 = 0.75	472.85
340 K, 6991.8 kPa, x2 = 0.25	518.67
340 K, 7014.4 kPa, x2 = 0.5	497.66
360 K, 1968.3 kPa, x2 = 0.25	468.3
360 K, 2483.2 kPa, x2 = 0.25	471.24
360 K, 2528 kPa, x2 = 0.5	441.58
360 K, 2981.1 kPa, x2 = 0.75	400.91
360 K, 3014.4 kPa, x2 = 0.5	445.35
360 K, 3030.5 kPa, x2 = 0.25	474.17
360 K, 3479.5 kPa, x2 = 0.25	476.45
360 K, 3504.1 kPa, x2 = 0.75	407.74
360 K, 3530.7 kPa, x2 = 0.5	449
360 K, 4004.6 kPa, x2 = 0.25	478.98
360 K, 4023.8 kPa, x2 = 0.5	452.26
360 K, 4034.2 kPa, x2 = 0.75	413.59
360 K, 4494.7 kPa, x2 = 0.25	481.23
360 K, 4499.5 kPa, x2 = 0.75	418.08
360 K, 4529.2 kPa, x2 = 0.5	455.37
360 K, 4959.4 kPa, x2 = 0.75	422.1
360 K, 5018.1 kPa, x2 = 0.25	483.52
360 K, 5025.4 kPa, x2 = 0.5	458.22
360 K, 5477.4 kPa, x2 = 0.75	426.13
360 K, 5492.3 kPa, x2 = 0.25	485.53
360 K, 5525 kPa, x2 = 0.5	460.95
360 K, 5965.8 kPa, x2 = 0.75	429.75
360 K, 5999.9 kPa, x2 = 0.25	487.58
360 K, 6017.8 kPa, x2 = 0.5	463.52
360 K, 6472.2 kPa, x2 = 0.25	489.44
360 K, 6494 kPa, x2 = 0.75	433.3
360 K, 6530.6 kPa, x2 = 0.5	466.12
360 K, 6960.2 kPa, x2 = 0.75	436.27
360 K, 6966.9 kPa, x2 = 0.25	491.3
360 K, 6972.7 kPa, x2 = 0.5	468.36
380 K, 2507.8 kPa, x2 = 0.25	426.44
380 K, 3006.4 kPa, x2 = 0.25	431.76
380 K, 3508.7 kPa, x2 = 0.25	436.48
380 K, 3523.1 kPa, x2 = 0.5	395.46
380 K, 3998.7 kPa, x2 = 0.25	440.67
380 K, 4001.1 kPa, x2 = 0.5	402.87
380 K, 4476.5 kPa, x2 = 0.5	409.03
380 K, 4501.1 kPa, x2 = 0.25	444.52
380 K, 4538.7 kPa, x2 = 0.75	349.07
380 K, 4998.7 kPa, x2 = 0.25	448.08
380 K, 5019 kPa, x2 = 0.5	415.08
380 K, 5025.3 kPa, x2 = 0.75	362.3
380 K, 5491.2 kPa, x2 = 0.75	371.58
380 K, 5494.5 kPa, x2 = 0.5	419.73
380 K, 5497.5 kPa, x2 = 0.25	451.38
380 K, 5962.5 kPa, x2 = 0.5	423.89
380 K, 5986.2 kPa, x2 = 0.75	379.48
380 K, 5995.5 kPa, x2 = 0.25	454.49
380 K, 6480.6 kPa, x2 = 0.5	428.09
380 K, 6502.4 kPa, x2 = 0.25	457.46
380 K, 6503.9 kPa, x2 = 0.75	386.32
380 K, 6897.6 kPa, x2 = 0.75	390.75
380 K, 6908.8 kPa, x2 = 0.5	431.3
380 K, 6952.8 kPa, x2 = 0.25	459.99

mass density [kg/m3]
Details	300 K	320 K	340 K	360 K	380 K
x2 = 0.25	554.07	528.42	499.52	466.36	424.79
x2 = 0.5	535.4	507.52	475.99	–	387.07
x2 = 0.75	514.2	483.71	447.59	398.44	–
